The values below come from patent publication US8859580B2 (Boehringer Ingelheim International GmbH, priority 2007, dated 2014).

The experiment has as its target T1, 11β-HSD1 (Homo sapiens, UniProt P28845).
T1 construct: detecting cortisol generated from cortisterone by human liver microsomes; from tissue; host or cells: human liver microsomes
The experiment is described as follows: In vitro inhibition of 11β-HSD1, HTRF detection of cortisol generated from cortisone by human liver microsomes. Type of experiment: biochemical. To be noted: 11β-HSD IC50 (nM), 1 hour at 37° C., pH 6.0, NADPH 200 μM, cortisone 80 nM, inhibition relative to carbenoxolone signal. Summed up:
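Cortisol formed from cortisone by human liver microsomes quantified by competitive HTRF immunoassay (XL665-cortisol, Eu-cryptate anti-cortisol antibody), 2 h detection, Em665/Em615 ratio converted via cortisol calibration curve. Percent inhibition relative to carbenoxolone signal; IC50 from curves.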
For orientation: Time-resolved FRET reads energy transfer from a long-lived donor to a nearby acceptor.

T1 sequence (P28845 whole entry): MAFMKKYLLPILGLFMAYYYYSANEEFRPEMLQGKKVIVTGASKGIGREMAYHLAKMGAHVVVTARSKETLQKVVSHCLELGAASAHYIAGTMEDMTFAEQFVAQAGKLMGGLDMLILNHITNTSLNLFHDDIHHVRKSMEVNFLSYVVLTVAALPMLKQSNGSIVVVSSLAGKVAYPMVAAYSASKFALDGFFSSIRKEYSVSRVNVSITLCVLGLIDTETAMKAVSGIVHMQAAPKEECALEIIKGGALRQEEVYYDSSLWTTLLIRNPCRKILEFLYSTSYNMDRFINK

In the case of `CC1(C)[C@H]2Cc3c(O)cccc3[C@]1(C)CCN2C(=O)c1ccc(CNC(=O)c2ccccc2)cc1` [Example 125, N-{4-[(2R,6S)-10-Hydroxy-6,11,11-trimethyl-1,2,5,6-tetrahydro-4H-2,6-methano-benzo[d]azocine-3-carbonyl]-benzyl}-benzamide], the IC50 – broadly, the concentration needed to halve the response being measured – came to 989 nM.

Compound `CC1(C)[C@H]2Cc3c(O)cccc3[C@]1(C)CCN2C(=O)c1ccncc1` [Example 126, [(2R,6S)-10-Hydroxy-6,11,11-trimethyl-1,2,5,6-tetrahydro-4H-2,6-methano-benzo[d]azocin-3-yl]-pyridin-4-yl-methanone] returned an IC50 of 1270 nM. To `CC1(C)[C@H]2Cc3c(O)cccc3[C@]1(C)CCN2C(=O)c1cccnc1` [Example 127, [(2R,6S)-10-Hydroxy-6,11,11-trimethyl-1,2,5,6-tetrahydro-4H-2,6-methano-benzo[d]azocin-3-yl]-pyridin-3-yl-methanone] belongs 1470 nM. Under `CC1(C)[C@H]2Cc3c(O)cccc3[C@]1(C)CCN2C(=O)c1ccccn1` [Example 128, [(2R,6S)-10-Hydroxy-6,11,11-trimethyl-1,2,5,6-tetrahydro-4H-2,6-methano-benzo[d]azocin-3-yl]-pyridin-2-yl-methanone] stands 1290 nM. To `CC1(C)[C@H]2Cc3c(O)cccc3[C@]1(C)CCN2C(=O)c1ccncn1` [Example 129, [(2R,6S)-10-Hydroxy-6,11,11-trimethyl-1,2,5,6-tetrahydro-4H-2,6-methano-benzo[d]azocin-3-yl]-pyrimidin-4-yl-methanone] belongs 5850 nM; to `CC1(C)[C@H]2Cc3c(O)cccc3[C@]1(C)CCN2C(=O)c1ccc(CN2CCCC2=O)cc1` [Example 130, 1 -{4-[(2R,6S)-10-Hydroxy-6,11,11-trimethyl-1,2,5,6-tetrahydro-4H-2,6-methano-benzo[d]azocine-3-carbonyl]-benzyl}-pyrrolidin-2-one], 1610 nM; to `CC1(C)[C@H]2Cc3c(O)cccc3[C@]1(C)CCN2C(=O)c1ccc(Cn2cncn2)cc1` [Example 131, [(2R,6S)-10-Hydroxy-6,11,11-trimethyl-1,2,5,6-tetrahydro-4H-2,6-methano-benzo[d]azocin-3-yl]-(4-[1,2,4]triazol-1-ylmethyl-phenyl)-methanone], 361 nM. The compound `CC(=O)NCc1ccc(C(=O)N2CC[C@@]3(C)c4cccc(O)c4C[C@@H]2C3(C)C)cc1` [Example 132, N-{4-[(2R,6S)-10-Hydroxy-6,11,11-trimethyl-1,2,5,6-tetrahydro-4H-2,6-methano-benzo[d]azocine-3-carbonyl]-benzyl}-acetamide] came in with an IC50 of 958 nM. Under `CC1(C)[C@H]2Cc3c(O)cccc3[C@]1(C)CCN2C(=O)c1ccc(C(=O)N2CCCC2)cc1` [Example 133, [(2R,6S)-10-Hydroxy-6,11,11-trimethyl-1,2,5,6-tetrahydro-4H-2,6-methano-benzo[d]azocin-3-yl]-[4-(pyrrolidine-1-carbonyl)-phenyl]-methanone] stands 941 nM; under `CC1(C)[C@H]2Cc3c(O)cccc3[C@]1(C)CCN2C(=O)c1ccc(C(=O)N2CCOCC2)cc1` [Example 134, [(2R,6S)-10-Hydroxy-6,11,11-trimethyl-1,2,5,6-tetrahydro-4H-2,6-methano-benzo[d]azocin-3-yl]-[4-(morpholine-4-carbonyl)-phenyl]-methanone], 1230 nM.

Turning to `CC1(C)[C@H]2Cc3c(O)cccc3[C@]1(C)CCN2C(=O)c1ccc(C(=O)Nc2ccccc2)cc1` [Example 135, 4-[(2R,6S)-10-Hydroxy-6,11,11-trimethyl-1,2,5,6-tetrahydro-4H-2,6-methano-benzo[d]azocine-3-carbonyl]-N-phenyl-benzamide], the IC50 came out at 3520 nM.

Regarding `CC1(C)[C@H]2Cc3c(O)cccc3[C@]1(C)CCN2C(=O)c1ccc(C(=O)NCc2ccccc2)cc1` [Example 137, N-Benzyl-4-[(2R,6S)-10-hydroxy-6,11,11-trimethyl-1,2,5,6-tetrahydro-4H-2,6-methano-benzo[d]azocine-3-carbonyl]-benzamide], the IC50 came to 3620 nM. To `CCNC(=O)c1ccc(C(=O)N2CC[C@@]3(C)c4cccc(O)c4C[C@@H]2C3(C)C)cc1` [Example 138, N-Ethyl-4-[(2R,6S)-10-hydroxy-6,11,11-trimethyl-1,2,5,6-tetrahydro-4H-2,6-methano-benzo[d]azocine-3-carbonyl]-benzamide] belongs 2810 nM; to `Cc1cccc2c1C[C@H]1N(C(=O)c3ccc4nc[nH]c4c3)CC[C@]2(C)C1(C)C` [Example 139, (3H-Benzoimidazol-5-yl)-[(2R,6S)-6,10,11,11-tetramethyl-1,2,5,6-tetrahydro-4H-2,6-methano-benzo[d]azocin-3-yl]-methanone], 92 nM; to `CC1(C)[C@H]2Cc3c(F)cccc3[C@]1(C)CCN2C(=O)c1ccc2nc[nH]c2c1` [Example 140, (3H-Benzoimidazol-5-yl)-[(2R,6S)-10-fluoro-6,11,11-trimethyl-1,2,5,6-tetrahydro-4H-2,6-methano-benzo[d]azocin-3-yl]-methanone], 48 nM.

In turn, `CC12CCN(C(=O)c3ccc4nc[nH]c4c3)C(Cc3cc(N)ccc31)C2(C)C` (stereo not drawn) [Example 141, (9-Amino-6,11,11-trimethyl-1,2,5,6-tetrahydro-4H-2,6-methano-benzo[d]azocin-3-yl)-(3H-benzoimidazol-5-yl)-methanone] gave a 50% inhibitory concentration (IC50) of 59 nM.

Regarding `CC1CN(Cc2ccc(C(=O)N3CC[C@@]4(C)c5cccc(O)c5C[C@@H]3C4(C)C)cc2)CCO1` (stereo partly drawn) [Example 142], half-maximal inhibition (IC50) was put at 689 nM.

The compound `CC12CCN(C(=O)c3ccc4nc[nH]c4c3)C(Cc3cc4c(cc31)OCO4)C2(C)C` (stereo not drawn) [Example 143, (8,9-Methylenedioxy-6,11,11-trimethyl-1,2,5,6-tetrahydro-4H-2,6-methano-benzo[d]azocin-3-yl)-(3H-benzoimidazol-5-yl)-methanone] had an IC50 of 123 nM. To `CC1(C)[C@H]2Cc3c(O)cccc3[C@]1(C)CCN2C(=O)c1ccncc1Cl` [Example 144, (3-Chloro-pyridin-4-yl)-[(2R,6S)-10-hydroxy-6,11,11-trimethyl-1,2,5,6-tetrahydro-4H-2,6-methano-benzo[d]azocin-3-yl]-methanone] belongs 2560 nM; to `CC12CCN(C(=O)c3ccc4nc[nH]c4c3)C(Cc3cc(F)ccc31)C2(C)C` (stereo not drawn) [Example 145, (3H-Benzoimidazol-5-yl)-(9-fluoro-6,11,11-trimethyl-1,2,5,6-tetrahydro-4H-2,6-methano-benzo[d]azocin-3-yl)-methanone], 108 nM; to `COc1cccc2c1CC1N(C(=O)c3ccc4nc[nH]c4c3)CCC2C1(C)C` (stereo not drawn) [Example 146, (3H-Benzoimidazol-5-yl)-(10-methoxy-11,11-dimethyl-1,2,5,6-tetrahydro-4H-2,6-methano-benzo[d]azocin-3-yl)-methanone], 384 nM.

Take `COc1ccc2c(c1)C[C@@H]1N(C(=O)c3ccc4nc[nH]c4c3)CC[C@@]2(C)C1(C)C` [Example 147, (3H-Benzoimidazol-5-yl)-[(2S,6R)-9-methoxy-6,11,11-trimethyl-1,2,5,6-tetrahydro-4H-2,6-methano-benzo[d]azocin-3-yl]-methanone]: 1010 nM corresponded to half-maximal inhibition (IC50). To `O=C(c1ccc2nc[nH]c2c1)N1CCC2(c3ccccc3)CC1Cc1ccccc12` (stereo not drawn) [Example 148, (3H-Benzoimidazol-5-yl)-(6-phenyl-1,2,5,6-tetrahydro-4H-2,6-methano-benzo[d]azocin-3-yl)-methanone] belongs 556 nM. To `O=C(c1ccc2nc[nH]c2c1)N1CCC2(c3ccccc3)CC1Cc1ccc(O)cc12` (stereo not drawn) [Example 149, (3H-Benzoimidazol-5-yl)-(8-hydroxy-6-phenyl-1,2,5,6-tetrahydro-4H-2,6-methano-benzo[d]azocin-3-yl)-methanone] belongs 374 nM; to `CC1(C)C2Cc3ccc(O)cc3C1(c1ccccc1)CCN2C(=O)c1ccc2nc[nH]c2c1` (stereo not drawn) [Example 150, (3H-Benzoimidazol-5-yl)-(8-hydroxy-11,11-dimethyl-6-phenyl-1,2,5,6-tetrahydro-4H-2,6-methano-benzo[d]azocin-3-yl)-methanone], 438 nM; to `C[C@@H]1[C@H]2Cc3ccc(C(=O)O)cc3[C@]1(C)CCN2C(=O)c1ccc2nc[nH]c2c1` [Example 151, (2R,6R,11S)-3-(3H-Benzoimidazole-5-carbonyl)-6,11-dimethyl-1,2,3,4,5,6-hexahydro-2,6-methano-benzo[d]azocine-8-carboxylic acid], 426 nM. As for `CC1(C)[C@H]2Cc3c(C(=O)O)cccc3[C@]1(C)CCN2C(=O)c1ccc2nc[nH]c2c1` [Example 152, (2R,6S)-3-(3H-Benzoimidazole-5-carbonyl)-6,11,11-trimethyl-1,2,3,4,5,6-hexahydro-2,6-methano-benzo[d]azocine-10-carboxylic acid], the IC50 was 4670 nM. To `CC12CCN(C(=O)c3ccc4nc[nH]c4c3)C(Cc3cc(C(=O)O)ccc31)C2(C)C` (stereo not drawn) [Example 154, 3-(3H-Benzoimidazole-5-carbonyl)-6,11,11-trimethyl-1,2,3,4,5,6-hexahydro-2,6-methano-benzo[d]azocine-9-carboxylic acid] belongs 1660 nM.

As for `C[C@@H]1[C@H]2Cc3ccc(C(=O)N(C)C)cc3[C@]1(C)CCN2C(=O)c1ccc2nc[nH]c2c1` [Example 155, (2R,6R,11S)-3-(3H-Benzoimidazole-5-carbonyl)-6,11-dimethyl-1,2,3,4,5,6-hexahydro-2,6-methano-benzo[d]azocine-8-carboxylic acid dimethylamide], the IC50 turned out to be 354 nM. Under `CNC(=O)c1ccc2c(c1)[C@]1(C)CCN(C(=O)c3ccc4nc[nH]c4c3)[C@H](C2)[C@H]1C` [Example 156, (2R,6R,11S)-3-(3H-Benzoimidazole-5-carbonyl)-6,11-dimethyl-1,2,3,4,5,6-hexahydro-2,6-methano-benzo[d]azocine-8 carboxylic acid methylamide] stands 340 nM.
